Results on two substances are retold here after PMC5117898 (International Journal of Nanomedicine, 2016).

The subject of data set [1] is HEI-OC1 cells. Kind of data set: Cellular uptake test of CPPs. Type of data set: cell-based, mouse. The following applies: rhodamine-labeled peptides 0.025 mg/mL, flow cytometry.
Data set [2] is described as follows: Dex loading and release study in simulated perilymph. Type of data set: physicochemical. Particulars: dialysis loading, PCA 30 mg and Dex 6 mg in DMSO.

Regarding RRRRRRRR [Arg8], in data set [1], the “fluorescence intensity fold higher compared with Penetratin” value was 18.8±3.2 fold and the “fluorescence intensity fold higher compared with Tat” value worked out at 16.1±1.3 fold. PHEA-g-C18-Arg8 [PCA nanoparticles]: the “percentage of Dex loading” value in data set [2] is listed as 16.8%±3.2.
